In patent US20240122933A1, “USE OF ISOQUINOLINE-1,5-DIAMINES FOR WOUND HEALING” (Lutris Pharma Ltd., priority 2021, published 2024):
One block for each molecule: values may come before it.

What was measured:
[1] = test system: Mitogen-Activated Protein Kinase (MAPK or ERK); test: MAPK (ERK phosphorylation) activity screen of BRaf inhibitors of Formula (I) vs. reference C-1; format: cell-based; settings: MAPK activity of compound relative to reference compound C-1
Description: The BRaf inhibitors of this disclosure were screened for phosphorylation of ERK (MAPK).
(§1) The chemical structures, synthetic schemes and the synthetic procedures for each of the compounds of Formula (I) of this disclosure, as well as their MAPK (ERK) and the phototoxicity studies of LUT-014 were detailed in Shelach N., U.S. Patent Application Publication No. U.S.2019389862, which is incorporated herein in its entirety.

[2] = Phototoxicity: Photo-Irritation Factor (PIF) or Mean Photo Effect (MPE); format: cell-based
Method: The level of phototoxicity was determined by measuring a Photo-Irritation Factor (PIF) or a Mean Photo Effect (MPE) of one of the compounds of Formula (I), namely LUT-014 (R=3-(trifluoromethoxy)phenyl).
as §1

wound = settings: given alone; cited from earlier work

Molecule: C#Cc1cccc(Nc2nccc3c(Nc4ncccc4-c4ncnc5nc[nH]c45)c(C)ccc23)c1 [LUT-012]
LUT/C1 MAPK Ratios [1]: 0.7

Molecule: Cc1ccc2c(Nc3cc(C(C)(C)C)nn3C)nccc2c1Nc1ncccc1-c1ncnc2nc[nH]c12 [LUT-013]
LUT/C1 MAPK Ratios [1]: 3.4

Molecule: Cc1ccc2c(Nc3cccc(OC(F)(F)F)c3)nccc2c1Nc1ncccc1-c1ncnc2[nH]cnc12 [LUT-014]
LUT/C1 MAPK Ratios [1]: 2.9
Photo-Irritation Factor (PIF) [2]: less than 2
phototoxicity [2]: low phototoxicity

Molecule: Cc1ccc2c(Nc3ccc(F)c(Cl)c3)nccc2c1Nc1ncccc1-c1ncnc2[nH]cnc12 [LUT-015]
LUT/C1 MAPK Ratios [1]: 2.1

B1: Becaplermin (protein, UniProt P01127 82-190, looked up)
Platelet-derived growth …: SLGSLTIAEPAMIAECKTRTEVFEISRRLIDRTNANFLVWPPCVEVQRCSGCCNNRNVQCRPTQVQLRPVQVRKIEIVRKKPIFKKATVTLEDHLACKCETVAAARPVT
notes: recombinant human platelet-derived growth factor, FDA-approved for promoting healing of diabetic foot ulcers
effect in promoting wound healing (wound): only a modest beneficial effect

Other lines, results leading:

LUT/C1 MAPK Ratios [1]: 2.0
Molecule: Cc1ccc2c(Nc3ccc(I)cc3F)nccc2c1Nc1ncccc1-c1ncnc2nc[nH]c12 [LUT-016]

LUT/C1 MAPK Ratios [1]: 3.5
Molecule: Cc1ccc2c(Nc3ccc(Cl)c(C(F)(F)F)c3)nccc2c1Nc1ncccc1-c1ncnc2nc[nH]c12 [LUT-017]

LUT/C1 MAPK Ratios [1]: 1.0
Molecule: Cc1ccc2c(Nc3cccc(S(N)(=O)=O)c3)nccc2c1Nc1ncccc1-c1ncnc2[nH]cnc12 [LUT-020]
